Where two headings read alike, the source gives them in different places.

Series [1] deals with hepatocellular carcinoma HepG2 cell line. Kind of series: MTT cytotoxicity assay, HepG2. Format: cell-based, human. The conditions noted are these: Homo sapiens, mean ± SE. The procedure:
(§1) All the newly synthesized analogs were evaluated for their in vitro cytotoxicity against the hepatocellular carcinoma HepG2 cell line. Podo was utilized as a reference control in the current study. […] The N-phenyl triazinone derivative 9 was further investigated for its cytotoxic effects against normal liver cell line HL-7702.
(§2) MTT colorimetric assay was carried out to investigate the impact of the newly synthesized compounds 2–11 on hepatocellular carcinoma (HepG2) and normal liver cell line (HL-7702) cell lines. See Section 3.3.1 in Supplementary Material.
(§3) 3.3.1. Cytotoxic activity evaluation
To measure the cytotoxic activity of the synthesized derivatives 2a-11 in hepatocel-lular carcinoma (HepG2) cell line (ATCC Cat No. HB-8065) as well as normal human liver cell line HL-7702 (ATCC Cat. No. 77402), cell viability assay was assessed using MTT assay method. Cells at density of 1 x 104 were seeded in a 96-well plate at 37 °C for 24 h under 5% CO2. After incubation, the cells were treated with different concentrations of the test compounds 2a-11 and incubated for 24 h, then 20 μl of MTT solution at 5 mg/mL was applied and incubated for 4 h at 37 °C. Dimethyl sulphoxide (DMSO) in volume of 100 µl was added to each well to dissolve the purple formazan that had formed. The color inten-sity of the formazan product, which represents the growth condition of the cells, is quan-tified by using an ELISA plate reader (EXL 800, USA) at 570 nm absorbance. The experi-mental conditions were carried out with at least three replicates, and the experiments were repeated at least three times.
3.3.2. Tubulin inhibitions Assay
(§4) Compounds 9, 10 and 11 were evaluated for their tubulin inhibitory activity levels according to the manufacturer’s instructions using # abcam Human Beta-tubulin simplestep […]
3.3.3. Cell cycle analysis of compound 9
Cell cycle analysis in HepG2 cells was investigated using fluorescent Annexin V-FITC/ PI detection kit (BioVision EZCellTM Cell Cycle Analysis Kit Catalog #K920) by flow cytometry assay. HepG2 cells at a density of 2 × 10^5 per well were harvested and washed twice in PBS. After that, the cells were incubated at 37 °C and 5% CO2. […] Afterward, medium was stained with DNA flu-orochrome PI for 15 min at 37 °C. The samples were immediately analyzed using Facs Calibur flow cytometer (Becton and Dickinson, Heidelberg, Germany).
3.3.4. Apoptosis assay for compound 9
Apoptosis in HepG2 cells was investigated using fluorescent Annexin V-FITC/ PI de-tection kit (BioVision Annexin V-FITC Apoptosis Detection Kit, Catalog #: K101) by flow cy-tometry assay. HepG2 cells at a density of 2 × 10^5 per well were treated with compound 9 at its IC50 (μM) for 48 h, then the cells were harvested and stained with Annexin V-FITC/ PI dye for 15 min in the dark at 37 °C. The samples were immediately analyzed using FACS Calibur flow cytometer (Becton and Dickinson, Heidelberg, Germany).
3.3.5. Measurement of mitochondrial membrane potential (MMP) for compound 9 MMP was measured by FACS analysis using abcam ab113852TMRE Mitochondrial Membrane Potential Assay Kit with DiOC2(3) staining using MitoProbe™ DiOC2(3) Assay Kit for Flow Cytometry (M34150). After treatment with compound 9 at its IC50 concentra-tion, cells were stained with DiOC2(3) dye for 30 min in the incubator, then harvested and washed with PBS. DiOC2(3)-stained cells were represented with Annexin binding buffer and incubated at 37 °C for 15 min. The samples were immediately analyzed using cell […]
3.3.6. Effect on p53, Bax and Bcl-2 p53, Bax and Bcl2 enzyme activities in HepG2 cells were detected in the presence of com-pound 9 at its IC50 concentration (μM). The levels of the tumor suppressor gene p53, apoptotic markers Bax as well as the anti-apoptotic marker Bcl-2 were assessed using p53 ELISA kit, Human Bax ELISA kit and Bcl-2 Elisa kit. […]

Series [2] concerns normal liver cell line HL-7702. Nature of the series: MTT cytotoxicity assay, normal liver cells. The class given is cell-based. The conditions noted are these: Homo sapiens, L02, 24 h treatment, mean ± SE. The procedure:
as §1, §2, §3
To measure the cytotoxic activity of the synthesized derivatives 2a-11 in hepatocel-lular carcinoma (HepG2) cell line (ATCC Cat No. HB-8065) as well as normal human liver cell line HL-7702 (ATCC Cat. No. 77402), cell viability assay was assessed using MTT assay method. Cells at density of 1 x 104 were seeded in a 96-well plate at 37 °C for 24 h under 5% CO2. […] The color inten-sity of the formazan product, which represents the growth condition of the cells, is quan-tified by using an ELISA plate reader (EXL 800, USA) at 570 nm absorbance. […]
as §4
3.3.5. […] The samples were immediately analyzed using cell […]

The test system of another series is β-tubulin. Nature of the series: Tubulin polymerization inhibition (beta-tubulin ELISA in HepG2 cells). Format: cell-based, human. The procedure:
The selected candidates were tested at a concentration equal to their IC50 concentration dose value. […] See Section 3.3.2 in Supplementary Material. […] page 18: 3.3. Biological studies 3.3.1. Cytotoxic activity evaluation To measure the cytotoxic activity of the synthesized derivatives 2a-11 in hepatocel- lular carcinoma (HepG2) cell line (ATCC Cat No. HB-8065) as well as normal human liver cell line HL-7702 (ATCC Cat. No. 77402), cell viability assay was assessed using MTT assay method. Cells at density of 1 x 104 were seeded in a 96-well plate at 37 °C for 24 h under 5% CO2. After incubation, the cells were treated with different concentrations of the test compounds 2a-11 and incubated for 24 h, then 20 μl of MTT solution at 5 mg/mL was […] Dimethyl sulphoxide (DMSO) in volume of 100 μl was added to each well to dissolve the purple formazan that had formed. The color […] of the formazan product, which represents the growth condition of the cells, is quan- […] by using an ELISA plate reader (EXL 800, USA) at 570 nm absorbance. The experi- mental conditions were carried out with at least three replicates, and the experiments were repeated at least three times. 3.3.2. Tubulin inhibitions Assay […] according to the manufacturer's instructions using # abcam Human Beta-tubulin […] ELISA Kit ab245722. 3.3.3. Cell cycle analysis of compound 9 Cell cycle analysis in HepG2 cells was investigated using fluorescent Annexin V- FITC/ PI detection kit (BioVision EZCellTM Cell Cycle Analysis Kit Catalog #K920) by flow cytometry assay. […] twice in PBS. After that, the cells were incubated at 37 °C and 5% CO2. […] Apoptosis assay for compound 9 Apoptosis in HepG2 cells was investigated using fluorescent Annexin V-FITC/ PI de- tection kit (BioVision Annexin V-FITC Apoptosis Detection Kit, Catalog #: K101) by flow cy- tometry assay. […] The samples were immediately analyzed using FACS Calibur flow cytometer (Becton and Dickinson, Heidelberg, Germany). 3.3.5. Measurement of mitochondrial membrane potential (MMP) for compound 9 MMP was measured by FACS analysis using abcam ab113852TMRE Mitochondrial Membrane Potential Assay Kit with DiOC2(3) staining using MitoProbeTM DiOC2(3) Assay Kit for Flow Cytometry (M34150). After treatment with compound 9 at its IC50 concentra- tion, cells were stained with DiOC2(3) dye for 30 min in the incubator, then harvested and washed with PBS. […] The samples were immediately analyzed using cell Quest software. […] Effect on p53, Bax and Bcl-2 p53, Bax and Bcl2 enzyme activities in HepG2 cells were detected in the presence of com- pound 9 at its IC50 concentration (μM). The levels of the tumor suppressor gene p53, apoptotic markers Bax as well as the anti-apoptotic marker Bcl-2 were assessed using p53 ELISA kit, Human Bax ELISA kit and Bcl-2 Elisa kit. […]

The next series has as its system eight cancer cell lines. The arrangement: method as in PMID 23547728. The settings on record: read-out: average IC50 over eight cancer cell lines; cited from earlier work.
A further series relates to A-594 cell line. More on the design: method as in doi:10.1016/j.arabjc.2021.103644. The conditions noted are these: read-out: IC50, antiproliferative activity; cited from earlier work.
Another series deals with MGC-803 cell line. More on the design: method as in doi:10.1016/j.arabjc.2021.103644. The settings on record: read-out: IC50, antiproliferative activity; cited from earlier work.
A further series concerns PC-3 cell line. The arrangement: method as in doi:10.1016/j.arabjc.2021.103644. The settings on record: read-out: IC50, antiproliferative activity; cited from earlier work.
The next series has as its system HCT-116 cell line. More on the design: method as in doi:10.1016/j.arabjc.2021.103644. The conditions noted are these: read-out: IC50, antiproliferative activity; cited from earlier work.
For a further series, the system named is EC-109 cell line. The arrangement: method as in doi:10.1016/j.arabjc.2021.103644. The conditions noted are these: read-out: IC50, antiproliferative activity; cited from earlier work.

Consider `COc1cc([C@@H]2c3cc4c(cc3[C@H](O)[C@H]3COC(=O)[C@H]23)OCO4)cc(OC)c1OC` [podo, podophyllotoxin, reference compound], for which the half-inhibitory concentration (IC50) – broadly, the point on the concentration scale where inhibition reaches its midpoint – in series [1] (HepG2, 24 h treatment) was found to be 2.08 ± 0.04 µM; in series [2], 18.6 ± 0.58 µM. Moreover, the “β-tubulin polymerization inhibition percentage” value in the series on β-tubulin is reported as 91.32%.

Turning to `COc1cc(C(=O)c2nc(-c3ccccc3)c[nH]2)cc(OC)c1OC` [RABI-112], in the series with eight cancer cell lines, the IC50 was 14 nM.

Turning to `COc1ccc(C2=N/C(=C\c3cc(OC)c(OC)c(OC)c3)C(=O)NN2c2nc(-c3ccccc3)cs2)cc1OC` [Compound 11, (Z)-3-(3,4-Dimethoxyphenyl)-2-(4-Phenylthiazol-2-yl)-5-(3,4,5-Trimethoxybenzylidene)-1,2-Dihydro-1,2,4-Triazin-6(5H)-one], the melting point (commonly the temperature of the solid-liquid transition) lay within 248 to 250 °C. This compound also came in with an IC50 in [1] (HepG2, 24 h, 24 h treatment) of 3.21 ± 0.22 µM. The “β-tubulin polymerization inhibition percentage” value in the series with β-tubulin (HepG2 cells, each compound at its IC50 concentration (9 1.38, 10 2.52, 11 3.21, podo 2.08 μM), ELISA) amounted to 69.95%.

Turning to `COc1cc(Nc2nc(Cc3ccc(C(=O)/C=C/c4ccccn4)cc3)nnc2Cl)cc(OC)c1OC` [V], the 50% inhibitory concentration (IC50) in the series on A-594 cell line is 520 nM; in the series with MGC-803 cell line, 410 nM; in the series on PC-3 cell line, 610 nM; in the series with HCT-116 cell line, 430 nM; in the series on EC-109 cell line, 780 nM.

These data come from PMC9322052, “Synthesis and Biological Activity Screening of Newly Synthesized Trimethoxyphenyl-Based Analogues as Potential Anticancer Agents” (Molecules, 2022).
